Target: RORγt (Homo sapiens (Human), UniProt P51449)
Experiment: Gal4 ligand binding assay (RORγt Gal fusion luciferase reporter assay in HEK293T cells)
Format: cell-based
Settings: RORγt inverse agonists in RORγt Gal fusion assay
Experimental: The N-terminal DNA binding domains (DBD) of the native RORγ and RORγt receptors have been substituted with that of the yeast GAL4-DBD and stably transfected in HEK293T cells that also stably express luciferase under the regulation by upstream activation sequence of yeast Gal4. These cells constitutively express high level RORγ activity due to binding of endogenous co-factors. Both agonist and inverse agonist activity can be detected. The assay was performed according to kit manufacturer's instructions as follows. 10 mM compound stocks were diluted serially 1:3 with DMSO and further diluted with provided media to generate 10 titration points from 60 μM to 3 nM. These treatment conditions were added to the plates as 2× media in 100 μL volume. Each plate includes a positive control with 10 titration points as well as 6 negative control wells with vehicle only, with final DMSO concentration of 0.2%. RORγ reporter cells were rapidly thawed and added to the plates in 100 μL volume. The plates were incubated for 24 h in a 37° C. humidified 5% CO2 incubator. Media was removed before the addition of room temperature luciferous detection substrate. After 5 minute incubation, relative light units (RLUs) were quantified using a plate reading luminometer. Data was normalized to […] with only 0.2%0DMSO. Before establishing internal controls, ursolic acid was used as control.

Chain of RORγt (P51449 269-508): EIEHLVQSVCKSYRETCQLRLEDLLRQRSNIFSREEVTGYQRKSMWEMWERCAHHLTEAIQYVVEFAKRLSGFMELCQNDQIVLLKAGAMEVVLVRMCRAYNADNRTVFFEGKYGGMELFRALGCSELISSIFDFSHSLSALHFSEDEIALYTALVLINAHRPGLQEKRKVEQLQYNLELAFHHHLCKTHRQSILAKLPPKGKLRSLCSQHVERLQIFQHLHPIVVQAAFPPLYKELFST

| IC50 | Compound |
| --- | --- |
| < 0.05 µM | COc1cc(CN2CC3(C2)CN(S(C)(=O)=O)C3)ccc1-c1ccc(C(O)(C(F)(F)F)C(F)(F)F)cc1C [Example 57, 1,1,1,3,3,3-hexafluoro-2-(2′-methoxy-2-methyl-4′-((6-(methylsulfonyl)-2,6-diazaspiro[3.3]heptan-2-yl)methyl)-[1,1′-biphenyl]-4-yl)propan-2-ol] |
| < 0.05 µM | CCc1cc(CN2CCC3(CCS(=O)(=O)C3)C2)ccc1-c1ccc(C(O)(C(F)(F)F)C(F)(F)F)cc1 (centres unmarked) [Example 58, 7-((2-ethyl-4′-(1,1,1,3,3,3-hexafluoro-2-hydroxypropan-2-yl)-[1,1′-biphenyl]-4-yl)methyl)-2-thia-7-azaspiro[4.4]nonane 2,2-dioxide] |
| < 0.05 µM | CCc1cc(CN2CC3(C2)CN(S(C)(=O)=O)C3)ncc1-c1ccc(C(O)(C(F)(F)F)C(F)(F)F)cc1 [Example 60, 2-(4-(4-ethyl-6-((6-(methylsulfonyl)-2,6-diazaspiro[3.3]heptan-2-yl)methyl)pyridin-3-yl)phenyl)-1,1,1,3,3,3-hexafluoropropan-2-ol] |
| 0.05 to 0.25 µM | CS(=O)(=O)N1CC2(CN(Cc3ccc(-c4ccc(C(O)(C(F)(F)F)C(F)(F)F)cc4)cc3O)C2)C1 [Example 61, 4′-(1,1,1,3,3,3-hexafluoro-2-hydroxypropan-2-yl)-4-((6-(methylsulfonyl)-2,6-diazaspiro[3.3]heptan-2-yl)methyl)-[1,1′-biphenyl]-3-ol] |
| 0.05 to 0.25 µM | CCc1cc(CN2CC3(C2)CN(S(C)(=O)=O)C3)cnc1-c1ccc(C(O)(C(F)(F)F)C(F)(F)F)cc1C [Example 62, 2-(4-(3-ethyl-5-((6-(methylsulfonyl)-2,6-diazaspiro[3.3]heptan-2-yl)methyl)pyridin-2-yl)-3-methylphenyl)-1,1,1,3,3,3-hexafluoropropan-2-ol] |
| 0.05 to 0.25 µM | CCc1cc(CN2CC3(C2)CN(S(C)(=O)=O)C3)ccc1-c1ccc(C(O)(C(F)(F)F)C(F)(F)F)cn1 [Example 63, 2-(6-(2-ethyl-4-((6-(methylsulfonyl)-2,6-diazaspiro[3.3]heptan-2-yl)methyl)phenyl)pyridin-3-yl)-1,1,1,3,3,3-hexafluoropropan-2-ol] |
| < 0.05 µM | CCc1cc(CN2CC3(C2)CN(S(C)(=O)=O)C3)ncc1-c1ccc(C(O)(C(F)(F)F)C(F)(F)F)cc1C [Example 64, 2-(4-(4-ethyl-6-((6-(methylsulfonyl)-2,6-diazaspiro[3.3]heptan-2-yl)methyl)pyridin-3-yl)-3-methylphenyl)-1,1,1,3,3,3-hexafluoropropan-2-ol] |
| < 0.05 µM | CCc1cc(CN2CC3(C2)CN(S(C)(=O)=O)C3)ccc1-c1ccc(C(O)(C(F)(F)F)C(F)(F)F)cc1C#N [Example 65, 2′-ethyl-4-(1,1,1,3,3,3-hexafluoro-2-hydroxypropan-2-yl)-4′-((6-(methylsulfonyl)-2,6-diazaspiro[3.3]heptan-2-yl)methyl)-[1,1′-biphenyl]-2-carbonitrile] |
| 0.05 to 0.25 µM | Cc1cc(C(O)(C(F)(F)F)C(F)(F)F)ccc1-c1cccc(N2CC3(C2)CN(S(C)(=O)=O)C3)c1C [Example 66, 2-(2,2′-dimethyl-3′-(6-(methylsulfonyl)-2,6-diazaspiro[3.3]heptan-2-yl)-[1,1′-biphenyl]-4-yl)-1,1,1,3,3,3-hexafluoropropan-2-ol] |
| > 0.25 µM | Cc1cc(C(O)(C(F)(F)F)C(F)(F)F)ccc1-c1cccc(N2CC3(C2)CN(S(C)(=O)=O)C3)n1 [Example 67, 1,1,1,3,3,3-hexafluoro-2-(3-methyl-4-(6-(6-(methylsulfonyl)-2,6-diazaspiro[3.3]heptan-2-yl)pyridin-2-yl)phenyl)propan-2-ol] |
| < 0.05 µM | CCc1c(F)c(CN2CC3(C2)CN(S(C)(=O)=O)C3)cc(F)c1-c1ccc(C(O)(C(F)(F)F)C(F)(F)F)cc1C [Example 68, 2-(2′-ethyl-3′,6′-difluoro-2-methyl-4′-((6-(methylsulfonyl)-2,6-diazaspiro[3.3]heptan-2-yl)methyl)-[1,1′-biphenyl]-4-yl)-1,1,1,3,3,3-hexafluoropropan-2-ol] |

Reference: patent publication US11242350B2, “Spirocyclic ROR-gamma modulators” (Escalier Biosciences B.V., priority 2018, dated 2022)
